According to patent US9863956B2, “Differentiation of isobaric amino acids and other species” (Agency for Science, Technology and Research, priority 2009, dated 2018):
Where no end group is shown, it is not given here.

What was measured:
bCAII = bCAII (Bos taurus, UniProt P00921); assay: SPR affinity measurement (Biacore 3000) of peptide on immobilized bCAII; assay type: binding, bovine
Description: Affinity measurements were performed using a Biacore 3000 system (GE Heathcare) equipped with research grade CM5 sensor chips (GE Healthcare). The CM5 sensor chip was preconditioned after docking and priming the instrument with HBS-EP (GE Heathcare) buffer. Flow cell 1 (or 3) was used as a reference to subtract nonspecific binding, drift, and bulk refractive index. Using a flow rate of 20 microliters/min, the sensor chip's four flow cells were activated at 25° C. with a 7 min injection of amine-coupling kit (GE Healthcare) (1:1 mixture of 0.4 M EDC and 0.1 M NHS). To create a bCAII surface, 1 mg of bCAII was dissolved in 1 mL of 10 mM sodium acetate (pH 5.0) and injected across flow cell 2 only. Approximately 1000 response units (RU) of bCAII were immobilized onto this surface. Finally, 1.0 M ethanolamine (pH 8.5) was injected across the four flow cells for 4 min to deactivate the surfaces. After bCAII immobilization, the instrument was primed three times using running buffer (1×PBS+3% DMSO). HIRYKR (SEQ ID NO: 2) peptide (26.13 micrograms) was dissolved in 18 microliters DMSO and diluted with HBS-EP buffer to produce a 50 micromolar peptide stock solution. The peptide stock solution was serially diluted by a factor of 2 to a concentration of 390 nM. […]

[1] = target: bovine carbonic anhydrase (bCAII) (Bos taurus, UniProt P00921); assay: OBOC hexamer peptide library screening with Alexa Fluor 647 labeled bCAII, COPAS Plus bead sorting; assay type: binding; conditions: 50 nM dye labeled bCAII, 15 hr at 25° C.; on-bead peptide
Sequence of bovine carbonic anhydrase (bCAII) (P00921 whole entry): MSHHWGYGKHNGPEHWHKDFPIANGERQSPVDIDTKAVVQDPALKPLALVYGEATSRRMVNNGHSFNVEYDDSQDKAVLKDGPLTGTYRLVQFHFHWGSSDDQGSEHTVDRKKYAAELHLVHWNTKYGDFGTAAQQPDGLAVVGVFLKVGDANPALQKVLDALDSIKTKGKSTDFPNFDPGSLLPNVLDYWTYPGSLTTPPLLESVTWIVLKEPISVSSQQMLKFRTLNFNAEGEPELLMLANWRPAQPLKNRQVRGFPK
Description: Alexa Fluor® 647 protein labeling kit (A20173, Invitrogen) was chosen as the reactive dye for labeling bovine carbonic anhydrase (bCAII) following the supplier's protocol. Briefly, 2 mg/mL of bCAII in 0.1 M sodium bicarbonate (pH ˜8.3) was transferred 0.5 mL of bCAII solution into the vial of the reactive dye, and the vial was capped and inverted several times to dissolve the dye completely. The reaction mixture was stirred for 1 hr at room temperature under dark conditions. The Alexa Fluro® 647 labeled bCAII (bCAII-A647) was purified from the mixture using the size exclusion purification resin in the kit. Purified and labeled bCAII-A647 was characterized by NanoDrop (Thermo Scientific) and gel documentation (Typhoon) after SDS-PAGE. […]
Hit beads were sorted into cone-shaped wells of a 96 well plate using a COPAS Plus. […] The gating region was defined for beads based on their time-of-flight (TOF) and red fluorescence, and the sorting region was chosen for selecting beads based on their time-of-flight (TOF) and uniformity red fluorescence after incubation with bCAII-A647. […] The TOF, red fluorescence, and red fluorescence peak height of the beads were detected using a red diode laser (λ=635 nm). Due to the auto-fluorescence of the beads, the argon ion laser was intentionally turned off to minimize bleed-through effect. […]

Sequence of bCAII (P00921 whole entry): as above

Row | Substance | dissociation constant (KD) (bCAII; 1:1 Langmuir binding fit, 25° C., peptide 50 micromolar to 390 nM) | binding affinity to the protein bCAII (bCAII; conclusion in words) | hit in library screening against bCAII (bead fluorescence) [1]
1 | HIRYKR [hit hexamer peptide from OBOC library screened against bCAII, re-synthesized from Fmoc D-amino acids with a carboxamide C-terminus] | micromolar range | significant binding affinity | hit peptide from the brightest bead
2 | IQHKRF (not fully specified (residues 1, 2, 3, 4, 5, 6, C-terminus); also: D-amino acids, which residues not given here) | – | – | hit peptide
